From patent US20150105252A1, “SUBSTITUTED PYRAZOLES AS HERBICIDES” (E I DU PONT DE NEMOURS AND COMPANY, priority 2013, published 2015)

Experiments:
[1] = test system: lambsquarters; experiment: Test F preemergence; format: in vivo, Chenopodium album
Text: (§1) Seeds of plant species selected from corn (Zea mays), soybean (Glycine max), velvetleaf (Abutilon theophrasti), lambsquarters (Chenopodium album), wild poinsettia (Euphorbia heterophylla), pigweed, palmer (palmer pigweed, Amaranthus palmeri), common waterhemp (Amaranthus rudis), surinam grass (Brachiaria decumbens), large crabgrass (Digitaria sanguinalis), crabgrass, Brazil (Brazilian crabgrass, Digitaria horizontalis), fall panicum (Panicum dichotomiflorum), giant foxtail (Setaria faberii), green foxtail (Setaria viridis), goosegrass (Eleusine indica), johnsongrass (Sorghum halepense), common ragweed (Ambrosia elation), barnyardgrass (Echinochloa crus-galli), southern sandbur (Cenchrus echinatus), arrowleaf sida (Sida rhombifolia), Italian ryegrass (Lolium multiflorum), dayflower, VA (Virginia (VA) dayflower, Commelina virginica), field bindweed (Convolvulus arvensis), cocklebur (common cocklebur, Xanthium strumarium), morningglory (Ipomoea coccinea), nightshade (eastern black nightshade, Solanum ptycanthum), kochia (Kochia scoparia), yellow nutsedge (Cyperus esculentus), and hairy beggarticks (Bidens pilosa), were planted into a silt loam soil and treated preemergence with test chemicals formulated in a non-phytotoxic solvent mixture which included a surfactant.
(§2) At the same time, plants from these crop and weed species and also horseweed (Canada horseweed, Conyza canadensis), smartweed (ladysthumb smartweed, Polygonum persicaria), waterhemp_RES1, (ALS & Triazine resistant common waterhemp, Amaranthus rudis), and waterhemp_RES2, (ALS & HPPD resistant common waterhemp, Amaranthus rudis) were treated with postemergence applications of test chemicals formulated in the same manner. Plants ranged in height from 2 to 18 cm for postemergence treatments (1- to 4-leaf stage). Treated plants and controls were maintained in a greenhouse for 14 to 21 days, after which time all species were compared to controls and visually evaluated. Plant response ratings, summarized in Table F, are based on a scale of 0 to 100 where 0 is no effect and 100 is complete control. A dash (-) response means no test result.

[2] = test system: wild poinsettia; experiment: Test F preemergence; format: in vivo, Euphorbia heterophylla
Text: as §1, §2

[3] = test system: large crabgrass; experiment: Test F preemergence; format: in vivo, Digitaria sanguinalis
Text: as §1, §2

[4] = test system: giant foxtail; experiment: Test F preemergence; format: in vivo, Setaria faberii
Text: as §1, §2

[5] = test system: canarygrass; experiment: Test D preemergence; format: in vivo, Phalaris minor; settings: scale 0 to 100
Text: (§3) Seeds of plant species selected from bluegrass (annual bluegrass, Poa annua), blackgrass (Alopecurus myosuroides), canarygrass (littleseed canarygrass, Phalaris minor), chickweed (common chickweed, Stellaria media), galium (catchweed bedstraw, Galium aparine), bromegrass, downy (downy bromegrass, Bromus tectorum), field poppy (Papaver rhoeas), field violet (Viola arvensis), foxtail, green (green foxtail, Setaria viridis), deadnettle (henbit deadnettle, Lamium amplexicaule), ryegrass, Italian (Italian ryegrass, Lolium multiflorum), kochia (Kochia scoparia), lambsquarters (Chenopodium album), oilseed rape (Brassica napus), pigweed (redroot pigweed, Amaranthus retroflexus), chamomile (scentless chamomile, Matricaria inodora), speedwell (bird's-eye speedwell, Veronica persica), barley, spring (spring barley, Hordeum vulgare), wheat, spring (spring wheat, Triticum aestivum), buckwheat, wild (wild buckwheat, Polygonum convolvulus), mustard, wild (wild mustard, Sinapis arvensis), oat, wild (wild oat, Avena fatua), radish, wild (wild radish, Raphanus raphanistrum), windgrass (Apera spica-venti), Russian thistle (Salsola kali), barley, winter (winter barley, Hordeum vulgare), and wheat, winter (winter wheat, Triticum aestivum) were planted into a silt loam soil and treated preemergence with test chemicals formulated in a non-phytotoxic solvent mixture which included a surfactant.
(§4) At the same time, these species were planted in pots containing Redi-Earth® planting medium (Scotts Company, 14111 Scottslawn Road, Marysville, Ohio 43041) comprising spaghnum peat moss, vermiculite, wetting agent and starter nutrients and treated with postemergence applications of the test chemicals formulated in the same manner. Plants ranged in height from 2 to 18 cm (1- to 4-leaf stage). Treated plants and controls were maintained in a controlled growth environment for 14 to 21 days after which time all species were compared to controls and visually evaluated. Plant response ratings, summarized in Table D, are based on a scale of 0 to 100 where 0 is no effect and 100 is complete control. A dash (-) response means no test result.

[6] = test system: galium; experiment: Test D preemergence; format: in vivo, Galium aparine; settings: scale 0 to 100
Text: as §3, §4

[7] = test system: bromegrass, downy; experiment: Test D preemergence; format: in vivo, Bromus tectorum; settings: scale 0 to 100
Text: as §3, §4

[8] = test system: lambsquarters; experiment: Test D preemergence; format: in vivo, Chenopodium album; settings: scale 0 to 100
Text: as §3, §4

[9] = test system: pigweed; experiment: Test D preemergence; format: in vivo, Amaranthus retroflexus; settings: scale 0 to 100
Text: as §3, §4

[10] = test system: chickweed; experiment: Test D postemergence; format: in vivo, Stellaria media; settings: scale 0 to 100
Text: as §3, §4

[11] = test system: ryegrass, Italian; experiment: Test D postemergence; format: in vivo, Lolium multiflorum; settings: scale 0 to 100
Text: as §3, §4

[12] = test system: lambsquarters; experiment: Test D postemergence; format: in vivo, Chenopodium album; settings: scale 0 to 100
Text: as §3, §4

[13] = test system: mustard, wild; experiment: Test D postemergence; format: in vivo, Sinapis arvensis; settings: scale 0 to 100
Text: as §3, §4

[14] = test system: oat, wild; experiment: Test D postemergence; format: in vivo, Avena fatua; settings: scale 0 to 100
Text: as §3, §4

[15] = Preemergence, 250 g ai/ha, scale 0 to 100
[16] = Preemergence, 62 g ai/ha, scale 0 to 100
[17] = Preemergence, 125 g ai/ha, scale 0 to 100
[18] = preemergence, 16 g ai/ha, scale 0 to 100, 100 is complete control
[19] = Preemergence, 31 g ai/ha, scale 0 to 100
[20] = preemergence, 8 g ai/ha, scale 0 to 100, 100 is complete control

CCc1cc(C(=O)NC2CC2)nn1Cc1ccnc(OCC(F)(F)F)c1 [Compound 200]
Plant response rating, Lambsquarters [1, 15]: 98
Plant response rating, Lambsquarters [1, 16]: 65
Plant response rating, Lambsquarters [1, 17]: 70
Plant response rating, Lambsquarters [1, 18]: 0
Plant response rating, Wild Poinsettia [2, 15]: 35
Plant response rating, Wild Poinsettia [2, 16]: 15
Plant response rating, Wild Poinsettia [2, 17]: 20
Plant response rating, Wild Poinsettia [2, 18]: 0
Plant response rating, Large Crabgrass [3, 15]: 100
Plant response rating, Large Crabgrass [3, 16]: 20
Plant response rating, Large Crabgrass [3, 17]: 100
Plant response rating, Large Crabgrass [3, 18]: 0
Plant response rating, Large Crabgrass ([3]; preemergence, scale 0 to 100, 100 is complete control): 35
Plant response rating, Giant Foxtail [4, 15]: 40
Plant response rating, Giant Foxtail [4, 16]: 0
Plant response rating, Giant Foxtail [4, 17]: 5
Plant response rating, Giant Foxtail [4, 18]: 0

CCNC(=O)c1cc(CCCl)n(Cc2ccnc(C(F)(F)F)c2)n1 [Compound 179]
Plant response rating, Lambsquarters [1, 16]: 30
Plant response rating, Lambsquarters [1, 17]: 100
Plant response rating, Wild Poinsettia [2, 19]: 5
Plant response rating, Wild Poinsettia [2, 16]: 40
Plant response rating, Wild Poinsettia [2, 17]: 50
Plant response rating, Wild Poinsettia [2, 20]: 0
Plant response rating, Large Crabgrass [3, 19]: 40
Plant response rating, Large Crabgrass [3, 16]: 95
Plant response rating, Large Crabgrass [3, 17]: 90
Plant response rating, Large Crabgrass [3, 20]: 0
Plant response rating, Giant Foxtail [4, 19]: 25
Plant response rating, Giant Foxtail [4, 16]: 40
Plant response rating, Giant Foxtail [4, 17]: 98
Plant response rating, Giant Foxtail [4, 20]: 0

CCc1cc(C(=O)NC(C)C)nn1Cc1ccnc(C(F)(F)F)c1 [Compound 103]
Plant response rating, Canarygrass ([5]; 31 g ai/ha): 5
Plant response rating, Canarygrass ([5]; 62 g ai/ha): 55
Plant response rating, Canarygrass ([5]; 125 g ai/ha): 80
Plant response rating, Canarygrass ([5]; 250 g ai/ha): 100
Plant response rating, Galium ([6]; 31 g ai/ha): 50
Plant response rating, Galium ([6]; 62 g ai/ha): 100
Plant response rating, Galium ([6]; 125 g ai/ha): 100
Plant response rating, Galium ([6]; 250 g ai/ha): 100
Plant response rating, Bromegrass, Downy ([7]; 31 g ai/ha): 5
Plant response rating, Bromegrass, Downy ([7]; 62 g ai/ha): 10
Plant response rating, Bromegrass, Downy ([7]; 125 g ai/ha): 40
Plant response rating, Bromegrass, Downy ([7]; 250 g ai/ha): 85
Plant response rating, Lambsquarters ([8]; 31 g ai/ha): 65
Plant response rating, Lambsquarters ([8]; 62 g ai/ha): 70
Plant response rating, Lambsquarters ([8]; 125 g ai/ha): 100
Plant response rating, Lambsquarters ([8]; 250 g ai/ha): 100
Plant response rating, Pigweed ([9]; 31 g ai/ha): 100
Plant response rating, Pigweed ([9]; 62 g ai/ha): 100
Plant response rating, Pigweed ([9]; 125 g ai/ha): 100
Plant response rating, Pigweed ([9]; 250 g ai/ha): 100
Chickweed plant response rating ([10]; Postemergence, 31 g ai/ha): 20
Chickweed plant response rating ([10]; Postemergence, 125 g ai/ha): 40
Chickweed plant response rating ([10]; Postemergence, 250 g ai/ha): 70
Chickweed plant response rating ([10]; postemergence, 62 g ai/ha): 25
Ryegrass, Italian plant response rating ([11]; Postemergence, 31 g ai/ha): 5
Ryegrass, Italian plant response rating ([11]; Postemergence, 125 g ai/ha): 5
Ryegrass, Italian plant response rating ([11]; Postemergence, 250 g ai/ha): 35
Ryegrass, Italian plant response rating ([11]; postemergence, 62 g ai/ha): 5
Lambsquarters plant response rating ([12]; Postemergence, 31 g ai/ha): 35
Lambsquarters plant response rating ([12]; Postemergence, 125 g ai/ha): 40
Lambsquarters plant response rating ([12]; Postemergence, 250 g ai/ha): 60
Lambsquarters plant response rating ([12]; postemergence, 62 g ai/ha): 30
Mustard, Wild plant response rating ([13]; Postemergence, 31 g ai/ha): 25
Mustard, Wild plant response rating ([13]; Postemergence, 125 g ai/ha): 60
Mustard, Wild plant response rating ([13]; Postemergence, 250 g ai/ha): 60
Mustard, Wild plant response rating ([13]; postemergence, 62 g ai/ha): 45
Oat, Wild plant response rating ([14]; Postemergence, 31 g ai/ha): 10
Oat, Wild plant response rating ([14]; Postemergence, 125 g ai/ha): 20
Oat, Wild plant response rating ([14]; Postemergence, 250 g ai/ha): 25
Oat, Wild plant response rating ([14]; postemergence, 62 g ai/ha): 15
